Reference: patent publication US20240156825A1, “USE OF SELECTIVE VEGFR2 AND FGFR1 INHIBITORS” (Fountain Therapeutics Inc., priority 2022, published 2024)
Read-outs that look alike come from different tables or passages of the source. One block for each compound: values may come before it.

Experiments:
[1] = test system: VEGFR2 and FGFR1; experiment: Selection of compounds that selectively inhibit both VEGFR2 and FGFR1 (average relative IC50); assay type: biochemical; details: average of VEGFR2 and FGFR1 relative IC50
[2] = target: T1, VEGFR2 (Homo sapiens, UniProt P35968); details: relative IC50: reported IC50 toward VEGFR2 divided by next lowest reported IC50 to any gene target
T1 sequence (P35968 20-1356, species assumed): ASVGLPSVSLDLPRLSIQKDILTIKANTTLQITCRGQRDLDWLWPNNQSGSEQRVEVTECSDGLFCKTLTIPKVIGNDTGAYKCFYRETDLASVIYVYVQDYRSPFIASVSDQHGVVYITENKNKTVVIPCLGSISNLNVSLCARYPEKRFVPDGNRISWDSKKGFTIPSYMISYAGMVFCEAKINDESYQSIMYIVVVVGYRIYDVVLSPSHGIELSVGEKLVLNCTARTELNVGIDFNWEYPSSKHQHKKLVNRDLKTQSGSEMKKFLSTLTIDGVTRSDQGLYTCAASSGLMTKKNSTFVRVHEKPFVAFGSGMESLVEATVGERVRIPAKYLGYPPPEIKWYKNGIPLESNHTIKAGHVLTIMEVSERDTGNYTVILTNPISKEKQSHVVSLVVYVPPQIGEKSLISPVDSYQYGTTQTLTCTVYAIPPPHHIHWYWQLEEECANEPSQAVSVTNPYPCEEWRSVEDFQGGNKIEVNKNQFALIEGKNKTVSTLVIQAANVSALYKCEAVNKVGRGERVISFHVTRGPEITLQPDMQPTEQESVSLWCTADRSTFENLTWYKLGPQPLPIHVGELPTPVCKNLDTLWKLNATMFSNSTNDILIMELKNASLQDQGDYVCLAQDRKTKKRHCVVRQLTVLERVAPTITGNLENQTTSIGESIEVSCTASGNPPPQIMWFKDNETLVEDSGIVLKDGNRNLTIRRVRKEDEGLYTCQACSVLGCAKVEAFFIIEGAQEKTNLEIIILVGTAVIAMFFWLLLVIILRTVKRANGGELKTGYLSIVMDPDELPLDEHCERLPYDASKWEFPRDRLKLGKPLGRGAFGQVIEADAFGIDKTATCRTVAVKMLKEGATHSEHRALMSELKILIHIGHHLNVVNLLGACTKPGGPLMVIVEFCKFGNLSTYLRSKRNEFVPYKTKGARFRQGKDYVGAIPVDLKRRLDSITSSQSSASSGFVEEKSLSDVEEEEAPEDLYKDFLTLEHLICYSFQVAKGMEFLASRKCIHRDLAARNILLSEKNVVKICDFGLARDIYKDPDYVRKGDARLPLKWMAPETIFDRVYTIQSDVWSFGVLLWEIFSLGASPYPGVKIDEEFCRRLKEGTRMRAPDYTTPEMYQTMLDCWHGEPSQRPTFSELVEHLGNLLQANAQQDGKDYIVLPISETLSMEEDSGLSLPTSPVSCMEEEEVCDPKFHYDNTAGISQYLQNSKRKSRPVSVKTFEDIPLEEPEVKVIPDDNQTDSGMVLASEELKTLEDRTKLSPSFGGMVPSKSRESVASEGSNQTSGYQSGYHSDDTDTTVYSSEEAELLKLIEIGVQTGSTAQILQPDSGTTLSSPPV

[3] = target: T2, FGFR1 (Homo sapiens, UniProt P11362); details: relative IC50: reported IC50 toward FGFR1 divided by next lowest reported IC50 to any gene target
T2 sequence (P11362 22-822, species assumed): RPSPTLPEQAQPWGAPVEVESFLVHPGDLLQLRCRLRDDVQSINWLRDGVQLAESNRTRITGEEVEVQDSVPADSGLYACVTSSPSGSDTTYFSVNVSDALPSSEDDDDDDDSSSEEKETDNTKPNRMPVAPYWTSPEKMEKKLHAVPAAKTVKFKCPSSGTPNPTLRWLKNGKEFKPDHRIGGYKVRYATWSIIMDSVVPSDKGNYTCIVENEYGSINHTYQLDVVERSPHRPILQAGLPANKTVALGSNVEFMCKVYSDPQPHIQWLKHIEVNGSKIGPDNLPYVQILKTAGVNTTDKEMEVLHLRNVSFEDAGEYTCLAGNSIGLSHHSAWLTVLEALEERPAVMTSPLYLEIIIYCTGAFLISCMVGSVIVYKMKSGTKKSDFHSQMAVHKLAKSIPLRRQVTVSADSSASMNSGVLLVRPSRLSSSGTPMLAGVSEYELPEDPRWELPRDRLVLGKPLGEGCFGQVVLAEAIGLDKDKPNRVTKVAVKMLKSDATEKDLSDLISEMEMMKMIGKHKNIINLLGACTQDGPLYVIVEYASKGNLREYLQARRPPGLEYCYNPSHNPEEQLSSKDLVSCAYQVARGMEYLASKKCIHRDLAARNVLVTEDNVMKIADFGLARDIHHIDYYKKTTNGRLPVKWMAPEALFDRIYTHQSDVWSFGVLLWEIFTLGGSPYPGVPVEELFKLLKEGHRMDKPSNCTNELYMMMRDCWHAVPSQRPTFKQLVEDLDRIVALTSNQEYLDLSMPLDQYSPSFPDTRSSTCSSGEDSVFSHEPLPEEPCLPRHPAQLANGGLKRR

[4] = target: T2, FGFR1; details: cited from earlier work
[5] = test system: any gene target; details: cited from earlier work
[6] = test system: Zmpste24−/− mice; experiment: Mouse model of progeria: body fat (Echo MRI), lean muscle, body weight, intrascapular brown fat; assay type: in vivo; details: for Body fat (Echo MRI) vs vehicle / Intrascapular brown fat mass (percent of body weight) vs vehicle: Brivanib alaninate 50, SU5402 25, Cediranib maleate 5, Regorafenib 10, infigratinib 5 mg/kg
Experimental: Zmpste24 mice, a progeria model mouse line, were dosed with either 50 mg/kg Brivanib alaninate for 56 days, 5 days on, 2 days off (QD5), or vehicle alone. The dose was administered via oral gavage as a suspension of 18% (w/v) PEG400 2% (w/v) Tween-80 in water . The vehicle alone was 18% (w/v) PEG400 2% (w/v) Tween-80 in water.
The body fat of the mice was measured by an Echo MRI throughout the treatment.
Samples of intrascapular brown adipose tissue from 15 week old mice treated with Brivanib Alaninate or vehicle for 56 days underwent Hematoxylin and Eosin (H&E) staining.
Zmpste24−/− mice, a progeria model mouse line, were dosed with either 25 mg/kg SU5402 for 56 days, 5 days on, 2 days off (QD5) or vehicle alone. The dose was administered via oral gavage as a suspension of 5% (w/v) DMSO 9% (w/v) PEG400 1% (w/v) Tween-80 in saline. The vehicle alone was 5% (w/v) DMSO 9% (w/v) PEG400 1% (w/v) Tween-80 in saline.
The body fat of the mice was measured by an Echo […]. Lean muscle and body weight were also measured.
The dose was administered via oral gavage as a suspension of 18% (w/v) PEG400 2% (w/v) Tween-80 in water . The vehicle alone was 18% (w/v) PEG400 2% (w/v) Tween-80 in water.
The body fat of the mice was measured by an Echo MRI. […] There was also no alteration of intrascapular brown adipose tissue mass (FIG. 5D).
The dose was administered via oral gavage as a suspension of 18% (w/v) PEG400 2% (w/v) Tween-80 in water. The vehicle alone was 18% (w/v) PEG400 2% (w/v) Tween-80 in water.
The body fat of the mice was measured by an Echo MM. […] There was also no alteration of intrascapular brown adipose tissue mass (FIG. 6D).
The body fat of the mice was measure by an Echo MRI. […] There was also no alteration of intrascapular brown adipose tissue mass (FIG. 7D). […]

[7] = target: T3, EPHX2 (Homo sapiens, UniProt P34913); details: cited from earlier work
T3 sequence (P34913 1-555): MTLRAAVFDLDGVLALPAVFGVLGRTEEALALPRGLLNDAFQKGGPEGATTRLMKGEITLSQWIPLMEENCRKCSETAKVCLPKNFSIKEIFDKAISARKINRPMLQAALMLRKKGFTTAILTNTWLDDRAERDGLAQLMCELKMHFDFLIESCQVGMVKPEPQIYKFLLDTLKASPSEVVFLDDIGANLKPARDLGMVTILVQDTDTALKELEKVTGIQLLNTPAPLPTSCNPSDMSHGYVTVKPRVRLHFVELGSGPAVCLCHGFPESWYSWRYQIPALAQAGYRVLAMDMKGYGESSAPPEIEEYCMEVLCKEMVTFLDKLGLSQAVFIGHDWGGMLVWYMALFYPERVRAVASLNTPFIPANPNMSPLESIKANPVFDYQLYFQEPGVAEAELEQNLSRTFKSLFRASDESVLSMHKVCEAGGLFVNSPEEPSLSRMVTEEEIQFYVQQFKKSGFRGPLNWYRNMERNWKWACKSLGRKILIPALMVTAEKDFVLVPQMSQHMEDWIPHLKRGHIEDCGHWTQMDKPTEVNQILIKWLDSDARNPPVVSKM

[8] = test system: Zmpste24−/− mice; experiment: Mouse model of progeria: bone loss score of vertebrae and femur (H&E sections); assay type: in vivo; details: 50 mg/kg oral QD5 56 days, 15 weeks of age
Experimental: Zmpste24−/− mice were dosed with either 50 mg/kg Brivanib Alaninate for 56 days, 5 days on, 2 days off (QD5), or vehicle alone. The dose was administered via oral gavage as a suspension of 18% (w/v) PEG400 2% Tween-80 (w/v) in water . The vehicle alone was 18% (w/v) PEG400 2% (w/v) Tween-80 in water.
The mice were assessed for bone loss in the vertebrae and femur at 15 weeks of age. Bone loss was scored by a pathologist using H&E stained sections of vertebrae or femur samples by the following criteria:
The mice that are treated with a selective VEGFR2 inhibitor and a selective FGFR1 inhibitor are also assessed for bone loss in the vertebrae and femur. Bone loss is scored by a pathologist using the criteria in Example 2.

[9] = test system: C57BL6 mice fed a high fat, high cholesterol, high fructose diet; experiment: Mouse model of diet induced fatty liver disease; assay type: in vivo; details: 28 days
[10] = target: T1, VEGFR2; details: read-out: VEGFR2 IC50_μM; reported IC50 to VEGFR2; cited from earlier work
[11] = Table 2, list of selective inhibitors of FGFR1, read-out: FGFR1 IC50_μM: reported IC50 to FGFR1
[12] = Table 2, lowest reported IC50 to any gene target, read-out: Min IC50_μM
[13] = lowest reported IC50 to any gene target, read-out: min IC50
[14] = reported IC50 to FGFR1, read-out: FGFR1 IC50_μM
[15] = oral gavage QD5 for 56 days, SU5402 25, Cediranib maleate 5, Regorafenib 10, infigratinib 5 mg/kg
[16] = 50 mg/kg i.p. once a day, relative to standard diet
[17] = lowest reported IC50 to any gene target, read-out: Min IC50_μM

VEGFR2, rIC50 [2]: 3.0
FGFR1, rIC50 [3]: 0.3
Compound: NS(=O)(=O)c1ccc2c(c1)/C(=C/c1[nH]c3c(c1CCC(=O)O)CCCC3)C(=O)N2 [compound 5329165, Indolin-2-one deriv. 9c, reference compound]
avg rIC50 [1]: 1.7
IC50 [4, 11]: 200 nM
IC50 [5, 12]: 600 nM
IC50 [5, 13]: 200 nM

VEGFR2, rIC50 [2]: 1.2
FGFR1, rIC50 [3]: 1.0
Compound: CONC(=O)c1cc(Nc2ncnn3cc(-c4nnc(C)o4)c(C(C)C)c23)c(F)cc1F [compound 10478569, 2,4-Difluoro-5-[5-isopropyl-6-(5-methyl-[1,3,4]oxadiazol-2-yl)-pyrrolo[2,1-f][1,2,4]triazin-4-ylamino]-N-methoxy-benzamide, reference compound]
avg rIC50 [1]: 1.1
IC50 [4, 14]: 6.5 nM

VEGFR2, rIC50 [2]: 8.4
FGFR1, rIC50 [3]: 3.0
Compound: CNC(=O)c1cc(Oc2ccc(NC(=O)Nc3ccc(Cl)c(C(F)(F)F)c3)c(F)c2)ccn1 [compound 11167602, Regorafenib]
avg rIC50 [1]: 5.7
Body fat (Echo MRI) vs vehicle ([6]; oral gavage QD5 for 56 days): did not show an increase
Intrascapular brown fat mass (percent of body weight) vs vehicle ([6]; oral gavage QD5 for 56 days): no alteration
Body weight vs vehicle [6, 15]: did not show an increase
Lean muscle vs vehicle [6, 15]: did not show an increase
IC50 [5, 13]: 1 nM
IC50 [7]: < 3 nM

VEGFR2, rIC50 [2]: 0.9
FGFR1, rIC50 [3]: 1.1
Compound: Cc1cc2c(F)c(Oc3ncnn4cc(OC[C@@H](C)OC(=O)[C@@H](C)N)c(C)c34)ccc2[nH]1 [compound 11234052, Brivanib alaninate (Brivanib)]
avg rIC50 [1]: 1.0
Lipid content in intrascapular brown adipose tissue (H&E) ([6]; 15 week old mice, 50 mg/kg for 56 days): increased lipid content
Body fat (Echo MRI) vs vehicle ([6]; oral gavage QD5 for 56 days): increase in body mass starting at 6 weeks of age
Intrascapular brown fat mass (percent of body weight) vs vehicle ([6]; oral gavage QD5 for 56 days): made up for more of the percent of the body weight
Bone loss score, femur: most severe score in the group [8]: 0.5 (0.5 = less than 1%)
Bone loss score, vertebrae: most severe score in the group [8]: 4 (4 = 51-75%)
Bone loss scores vs vehicle [8]: lower bone loss scores
Share of mice with the most severe score, femur [8]: about 30%
Share of mice with the most severe score, vertebrae [8]: about 15%
Liver lipid content (H&E) vs vehicle ([9]; 25 mg/kg i.p. once a day): decreased liver lipid content
Size of adipocytes in the epididymal fat pad vs vehicle ([9]; 25 mg/kg i.p. once a day): decreased the size of adipocytes
Thickness of the abdominal subcutaneous adipose ([9]; 25 mg/kg i.p. once a day): increased in the thickness
Increase in blood urea nitrogen vs fatty liver diet + vehicle [9, 16]: less of an increase
Increase in body weight vs fatty liver diet + vehicle [9, 16]: less of an increase
Increase in liver mass vs fatty liver diet + vehicle [9, 16]: less of an increase
Increase in serum cholesterol vs fatty liver diet + vehicle [9, 16]: less of an increase
Increase in serum triglycerides vs fatty liver diet + vehicle [9, 16]: less of an increase
IC50 [10]: 25 nM
IC50 [5, 13]: 25 nM
IC50 ([5]; next lowest IC50 value to any gene target, read-out: Min IC50_μM): 28 nM

Compound: CONC(=O)c1cc(Nc2ncnn3cc(-c4nnco4)c(C(C)C)c23)c(F)cc1F [compound 11464544, 2,4-Difluoro-5-(5-isopropyl-6-[1,3,4]oxadiazol-2-yl-pyrrolo[2,1-f][1,2,4]triazin-4-ylamino)-N-methoxy-benzamide, reference compound]
avg rIC50 [1]: 1.2
VEGFR2, rIC50 [2]: 1.4
FGFR1, rIC50 [3]: 1.0
IC50 [4, 14]: 54 nM
IC50 [5, 17]: 54 nM
IC50 [5, 13]: 54 nM

VEGFR2, rIC50 [2]: 1.1
FGFR1, rIC50 [3]: 1.0
Compound: CONC(=O)c1cc(Nc2ncnn3cc(-c4nnc(C(F)(F)F)o4)c(C(C)C)c23)c(F)cc1F [compound 11488852, 2,4-Difluoro-5-[5-isopropyl-6-(5-trifluoromethyl-[1,3,4]oxadiazol-2-yl)-pyrrolo[2,1-f][1,2,4]triazin-4-ylamino]-N-methoxy-benzamide, reference compound]
avg rIC50 [1]: 1.0
IC50 ([4]; read-out: FGFR1 IC50_μM, reported IC50 to FGFR1): 33 nM
IC50 [5, 17]: 33 nM
IC50 [5, 13]: 33 nM

Compound: C=CC(=O)N1CC[C@H](n2cc(-c3cc4cc(C)cc(OC)c4s3)c3c(N)ncnc32)C1 [compound 138617501]
IC50 [4, 11]: 0.3 nM
IC50 [5, 12]: 0.8 nM

Compound: O=c1[nH]c(=O)n(-c2ccc(Oc3ccccc3)cc2)c(=O)n1-c1ccccc1 [compound 139434105]
IC50 [4, 11]: 890 nM
IC50 [5, 12]: 1300 nM
